{
  "source": "patent US20230124720A1",
  "about": "“APPLICATION OF ACRIDINEDIONE COMPOUND IN PREPARATION OF ANTI-DIABETIC DRUGS” (THE FOURTH MILITARY MEDICAL UNIVERSITY, priority 2020, published 2023)",
  "tested_on": "MIN6 cells",
  "experiment": "Insulin secretion in PA-induced insulin-resistant MIN6 cells",
  "type": "cell-based, mouse",
  "procedure": "MIN6 cells were seeded in 24-well plates and cultured as described in step 2.1 to a cell confluency of more than 80% and administrated in the following groups, with 12 replicates per group: (1) normal control group (Con): cultured with blank 1640 medium; (2) insulin resistance model panel (IR): treated with 0.125 mmol/L PA for 24 h to induce establishment of an insulin resistance model; (3) ADD-16 administration group (ADD): 10 μmol/L ADD-16 intervention was administered for 24 h after successful establishment of the insulin resistance model; (4) TAK875 control group (TAK875): 10 μmol/L TAK875 was administered as a positive control drug intervention for 24 h after successful establishment of the insulin resistance model; (5) metformin control group (MT): 10 mmol/L metformin was administered as a positive control drug intervention for 24 h after successful establishment of the insulin resistance model; (6) sitagliptin control group (ST): 10 μmol/L sitagliptin was administered as a positive control drug intervention for 24 h after successful establishment of the insulin resistance model. After the group administration, the medium was aspirated and washed 2 times with a KRB buffer without sugar, followed by the addition of the KRB buffer without sugar. […] After incubation at 37° C. for 1 h, all the medium in the wells was aspirated and centrifuged at 2000 rmp/min for 20 min, and the supernatant was collected and stored at −20° C. The insulin content was measured for each group.",
  "data": [
    {"smiles": "CC1(C)CC(=O)C2=C(C1)NC1=C(C(=O)CC(C)(C)C1)C2c1ccc(OCc2ccc(C(=O)O)cc2)c(Br)c1", "note": "[ADD-16]", "values": [
      {"measurement": "insulin secretion level in insulin-resistant MIN6 cells (in words)", "setting": "PA-induced IR model, 10 μmol/L, 24 h, 2.8 and 16.7 mmol/L glucose, P<0.001", "value": "even higher than in Con group"},
      {"measurement": "insulinotropic effect compared with TAK875 in insulin-resistant MIN6 cells (in words)", "setting": "same administration concentrations (10 μmol/L)", "value": "slightly better than TAK875"}
    ]}
  ]
}
